# Laboratory results from US8778688B2, “High-throughput methods for determining pharmacological levels of plasma D-serine” (The Johns Hopkins University, priority 2011, dated 2014).
# What was measured:
# DAAO [1] = target: T1, DAAO (Mus musculus, UniProt P18894); assay: Plasma D-serine after oral administration of D-serine ± DAAO inhibitors, determined by SPE/DAAO; assay type: in vivo; details: CD1 mice; for plasma D-serine curve / exposure to D-serine on co-administration: D-serine 326 μmole/kg po plus inhibitor po (CBIO 180, TPC 160 μmoles/kg)
# T1 construct: CD1 mice (6-8 wk old, Sprague Dawley, Harlan) were dosed orally with D-serine (30 mg/kg)±compounds; from tissue; host or cells: living CD1 mice (whole animal; DAAO of liver, kidney, brain)
# Description: Plasma was collected at 0.5, 1, 2, 3, and 6 hours after dosage. D-serine was extracted from plasma by SPE and its levels determined by the DAAO reaction. FIG. 2(A) depicts D-serine alone, FIG. 2(B) depicts CBIO alone, D-serine±CBIO and FIG. 2(C) depicts D-serine±TPC. […] Each data point is the average of data from 3 separate mice; error bars correspond to ±S.E.M. D-serine standard curves were constructed for each experiment.
# Animals—CD1 mice (6-8 wk old, Sprague Dawley, Harlan) were dosed orally with D-serine (30 mg/kg)±compounds. Animals were sacrificed 0.5, 1, 2, 3 and 6 h after dosing and blood was collected by cardiac puncture bleeds. Plasma was prepared and frozen at −80° C. until use.
# (§1) Cation Exchange SPE—D-serine was added to normal mouse plasma at different concentrations to generate a standard curve. Plasma (50 μL) containing D-serine or plasma from D-serine treated animals was diluted in 200 μL 0.03 N HCl (pH 1.5). […] Acidified samples were then added to a cation exchange resin (BioRad AG 50W-X4, 200 μL resin equilibrated with 0.03 N HCl) in deep well spin plates (Harvard Apparatus). Minicolumns were centrifuged for 2 min at 200×g. The resin was washed twice with 250 μL 0.03 N HCl and 3 times with 250 μL 100 mM Tris, pH 8.5. D-serine was eluted with 2 times 250 μL 100 mM Tris, pH 13.
# D-serine Measurement—An aliquot (50 μL) of the D-serine eluant from the cation exchange SPE was used as the source of D-serine in the DAAO catalyzed reaction. […] Briefly, the reaction is carried out in Tris buffer (pH 8.5, 100 mM) in the presence of flavin adenine dinucleotide (10 μM). The peroxide formed from the oxidation of D-serine in the presence of porcine DAAO (34 units/mg, Sigma) was made to react with horse radish peroxidase (0.01 mg/ml, Sigma) in the presence of Amplex Red (50 μM, Invitrogen) to make resorufin. Fluorescence of resorufin (ex/em 530/590) was monitored in a SpectraMax Gemini XS fluorimeter for 1 h at 5 min intervals. D-serine concentrations were determined by interpolation from the standard curve of fluorescence vs. D-serine concentration. […]
# porcine DAAO = target: T2, porcine DAAO (Sus scrofa, UniProt P00371); assay: DAAO enzyme coupled assay (Amplex Red/HRP, resorufin fluorescence); assay type: biochemical; details: control experiment, CBIO not removed by SPE; data not shown
# T2 construct: purchased Sigma
# Description: D-serine Measurement—An aliquot (50 μL) of the D-serine eluant from the cation exchange SPE was used as the source of D-serine in the DAAO catalyzed reaction. The DAAO assay is an enzyme coupled assay that was adapted from a procedure that has been reported previously (P. E. Brandish, et al. J Biomol Screen 11 (2006) 481-87). Briefly, the reaction is carried out in Tris buffer (pH 8.5, 100 mM) in the presence of flavin adenine dinucleotide (10 μM). The peroxide formed from the oxidation of D-serine in the presence of porcine DAAO (34 units/mg, Sigma) was made to react with horse radish peroxidase (0.01 mg/ml, Sigma) in the presence of Amplex Red (50 μM, Invitrogen) to make resorufin. Fluorescence of resorufin (ex/em 530/590) was monitored in a SpectraMax Gemini XS fluorimeter for 1 h at 5 min intervals. D-serine concentrations were determined by interpolation from the standard curve of fluorescence vs. D-serine concentration.
# The eluant containing D-serine was then used as substrate in the DAAO catalyzed reaction. […] The levels of several D-amino acids in mouse serum have been reported previously and they range from not detectable to 6 μM (A. Hashimoto, et al. Neurosci Lett 152 (1993) 33-36); these concentrations would give a low fluorescence background. […] In any case, background fluorescence was determined from control animals every time an experiment was carried out. […]
# DAAO [2] = target: T3, DAAO (Rattus norvegicus, UniProt O35078); details: oral co-administration with D-serine, rats; cited from earlier work
# T3 construct: host or cells: living rats (whole animal)
# [3] = test system: prepulse inhibition deficits; details: co-administration with D-serine, ddy mice; similar to 10-fold higher doses of D-serine alone; cited from earlier work
# [4] = Plasma D-serine time profile after oral D-serine, determined by SPE/DAAO; assay type: in vivo, CD1 mice; details: D-serine 326 μmoles/kg po
# Description: […] Animals were sacrificed 0.5, 1, 2, 3 and 6 h after dosing and blood was collected by cardiac puncture bleeds. Plasma was prepared and frozen at −80° C. until use.
# as §1
# D-serine Measurement—An aliquot (50 μL) of the D-serine eluant from the cation exchange SPE was used as the source of D-serine in the DAAO catalyzed reaction. The DAAO assay is an enzyme coupled assay that was adapted from a procedure that has been reported previously (P. E. Brandish, et al. J Biomol Screen 11 (2006) 481-87). […] Fluorescence of resorufin (ex/em 530/590) was monitored in a SpectraMax Gemini XS fluorimeter for 1 h at 5 min intervals. D-serine concentrations were determined by interpolation from the standard curve of fluorescence vs. D-serine concentration. […]
# [5] = test system: N-methyl-D-aspartate (NMDA) receptor; details: multiple clinical studies; high doses (2 g per day po); cited from earlier work
# [6] = cited from earlier work
# T1 sequence (P18894 whole entry): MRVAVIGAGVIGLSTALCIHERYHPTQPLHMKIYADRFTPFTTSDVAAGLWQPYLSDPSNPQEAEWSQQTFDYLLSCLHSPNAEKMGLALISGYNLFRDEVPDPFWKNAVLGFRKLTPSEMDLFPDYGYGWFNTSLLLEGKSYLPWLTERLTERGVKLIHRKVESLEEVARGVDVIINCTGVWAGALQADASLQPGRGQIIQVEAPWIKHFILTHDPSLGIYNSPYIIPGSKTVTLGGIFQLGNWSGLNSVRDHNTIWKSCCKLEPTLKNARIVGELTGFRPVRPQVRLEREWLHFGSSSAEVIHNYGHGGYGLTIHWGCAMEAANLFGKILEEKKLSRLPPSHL
# T3 sequence (O35078 whole entry): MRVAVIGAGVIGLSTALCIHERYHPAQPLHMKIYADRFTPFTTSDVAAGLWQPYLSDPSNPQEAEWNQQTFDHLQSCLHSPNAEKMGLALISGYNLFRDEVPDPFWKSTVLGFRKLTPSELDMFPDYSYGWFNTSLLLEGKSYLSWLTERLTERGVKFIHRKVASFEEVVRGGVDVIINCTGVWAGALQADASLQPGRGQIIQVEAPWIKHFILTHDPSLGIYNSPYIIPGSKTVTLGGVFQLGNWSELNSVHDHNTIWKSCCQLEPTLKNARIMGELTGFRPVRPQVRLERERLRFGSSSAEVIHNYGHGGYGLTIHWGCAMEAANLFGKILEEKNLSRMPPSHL
# T2 sequence (P00371 whole entry): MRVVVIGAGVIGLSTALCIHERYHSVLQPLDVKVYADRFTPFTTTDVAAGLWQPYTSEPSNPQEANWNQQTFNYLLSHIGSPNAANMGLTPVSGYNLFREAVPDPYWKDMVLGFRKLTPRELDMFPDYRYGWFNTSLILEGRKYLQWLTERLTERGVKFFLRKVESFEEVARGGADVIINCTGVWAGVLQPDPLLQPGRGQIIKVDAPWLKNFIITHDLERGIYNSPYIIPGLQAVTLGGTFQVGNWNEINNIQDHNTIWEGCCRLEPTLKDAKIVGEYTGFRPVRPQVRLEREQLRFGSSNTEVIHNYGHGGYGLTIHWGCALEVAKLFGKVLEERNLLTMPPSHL
smiles,measurement,setting,value
"Oc1noc2ccc(Cl)cc12 [CBIO, 5-chloro-benzo[d]isoxazol-3-ol]",plasma D-serine levels when inhibitor administered in the absence of D-serine,DAAO [1]; CBIO alone,the same as background levels
same,plasma D-serine curve / exposure to D-serine on co-administration,DAAO [1],overall curve was shifted to the right
same,oxidation of D-serine by DAAO,porcine DAAO,completely inhibited
same,brain levels of D-serine compared to D-serine alone,DAAO [2],significantly enhanced
same,plasma levels of D-serine compared to D-serine alone,DAAO [2],significantly enhanced
same,prepulse inhibition deficits,[3],normalized
N[C@H](CO)C(=O)O [D-serine],time point showing the highest D-serine plasma concentration,"[4]; first time point, Tmax likely earlier",0.5 h
same,half-life,"[4]; mouse, CD1 mice, plasma, read-out: estimated half-life of D-serine in mouse plasma",~50 min
same,"treating the positive, negative and cognitive deficits of schizophrenia",[5],effective
same,pKa of the carboxylic acid,[6],2.1
"O=C(O)c1cc2sccc2[nH]1 [TPC, 4H-thieno[3,2-b]pyrrole-5-carboxylic acid]",plasma D-serine curve / exposure to D-serine on co-administration,DAAO [1],shifted the exposure of D-serine in plasma
